The values that follow come from patent US8697643B2, “Method for controllably releasing a drug conjugate within subcutaneous tissue in response to the local concentration of an indicator” (priority 2005, dated 2014).

The subject of series [1] is fasted normal rats (Male Sprague-Dawley). The series is described as follows: blood glucose depression and serum insulin profiles after subcutaneous injection. The class given is in vivo, rat. On the procedure:
Subcutaneous injections of insulin-polymer conjugates or insulin controls are administered at a dose between 1 and 10 equivalent U insulin/kg body weight behind the neck of fasted normal […] rats (Male Sprague-Dawley, 200-250 g, n=2-4). Blood samples are collected via tail vein bleeding at −15 and 0 minutes, and at 15, 30, 45, 60, 90, 120, 180, 240, 300 and 360 minutes after injection. Blood glucose values are measured using commercially available test strips (Precision Xtra, Abbott Laboratories, Abbott Park, Ill.). The remaining blood is centrifuged to obtain serum and stored in a freezer until measured for serum insulin levels. Serum insulin is measured using an ELISA kit (ALPCO Diagnostics, Windham, N.H.). Pharmacodynamic (PD) parameters such as time to reach minimum blood glucose concentration (Tnadir) and duration over which the blood glucose level remains below 70% of initial value (T70% BGL), are determined according to published methods for subcutaneous delivery. Pharmacokinetic (PK) parameters such as time to reach maximum serum insulin concentration (Tmax), mean insulin residence time (MRT), and mean insulin absorption time (MAT), are determined according to published methods for subcutaneous delivery using commercially available ELISA assays (ALPCO Diagnostics, Windham, N.H.). The blood glucose depression curve and corresponding serum insulin profile for each formulation may then be compared to those obtained for an insulin control to determine any differences in the timing and extent of the insulin action.
The in vivo digestion behavior of the insulin-glycogen conjugate was assessed via subcutaneous injection (alone without a glucose-binding molecule such as Con A) into normal male SD rats.
Subcutaneous injections of insulin-dextran were administered using 0.25 ml of a sterilized 1×PBS solution (0.88 equivalent mg insulin/[…]) behind the neck of two fasted normal rat groups (Male Sprague-Dawley, 200-250 g, n=4). Measurements of glucose and insulin values from tail vein blood samples were performed at −15 and 0 minutes, and at 15, 30, 45, 60, 90, 120, 180, 240, 300 and 360 minutes after injection.

Series [2] concerns normal and STZ-diabetic rats. The series is described as follows: disappearance of fluorescently labeled gel components from the injection site. The settings on record: gel injected under the skin. In kind it is in vivo, rat. The text has this:
The inventive gel of Example 21, has viscosity characteristics that allow easy loading and injection through a standard 27½G insulin syringe obviating the need for invasive surgery. […] This is necessary to avoid unwanted material accumulation after repeated daily dosing. To illustrate this point, gels were synthesized from (i) fluorescently-labeled insulin-glycogen conjugate (FITC-conjugate)/unlabeled Con A and (ii) unlabeled insulin-glycogen conjugate/fluorescently-labeled Con A (FITC-Con A) in the presence of India ink (SpeedBall® Superblack) and injected under the skin of both normal and STZ-diabetic rats on Days 2, 1, and 0 in order to simultaneously observe the injection site post-mortem and monitor the rate of disappearance of each of the components by fluorescence imaging.
Taken together, not only is the insulin-glycogen conjugate removed completely from the injection site, its rate of disappearance is dependent on the glycemic state of the animal (i.e. hyperglycemia leads to more rapid elimination of material from the site).

Series [3] has as its target T1, human salivary amylase (Homo sapiens, UniProt P0DUB6).
T1 construct: from tissue; host or cells: human saliva (whole, diluted in 1x PBS)
T1 sequence (P0DUB6 16-511): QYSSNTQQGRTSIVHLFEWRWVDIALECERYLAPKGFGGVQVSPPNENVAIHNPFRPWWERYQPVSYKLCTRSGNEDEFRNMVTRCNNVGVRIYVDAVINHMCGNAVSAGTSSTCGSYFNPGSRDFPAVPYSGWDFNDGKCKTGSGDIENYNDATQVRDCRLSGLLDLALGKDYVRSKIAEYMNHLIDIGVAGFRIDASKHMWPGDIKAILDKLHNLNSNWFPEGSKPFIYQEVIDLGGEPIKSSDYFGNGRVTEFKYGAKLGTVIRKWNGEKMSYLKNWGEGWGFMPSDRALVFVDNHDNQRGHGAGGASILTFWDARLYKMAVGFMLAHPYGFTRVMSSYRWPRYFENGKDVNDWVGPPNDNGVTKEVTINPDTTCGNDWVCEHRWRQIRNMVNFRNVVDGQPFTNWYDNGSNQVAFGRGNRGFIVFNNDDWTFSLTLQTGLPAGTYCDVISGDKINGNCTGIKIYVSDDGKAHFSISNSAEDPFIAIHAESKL
The series is described as follows: in vitro amylase digestion assay of insulin-glycogen (SDS-PAGE). The settings on record: SDS-PAGE after incubation with amylase. In kind it is in vitro ADME. As for the experimental part: As previously discussed, once an insulin-glycogen conjugate is released from an inventive glucose-responsive material, it is digested by amylases that breakdown the large molecular weight insulin-glycogen conjugate into low molecular weight conjugates in vivo. […] An in vitro amylase digestion assay was performed to qualify the proposed insulin-glycogen degradation mechanism. […] The saliva sample was serially diluted 1:2 in 1×PBS buffer to 1:512.90 μL aliquots of each of the 1:4, 1:16, 1:64, 1:128, 1:256, and 1:512 dilutions were added to pre-prepared microcentrifuge tubes containing 90 μL of undiluted insulin-glycogen. […] The gels were run in SDS running buffer for 45 minutes to an hour at a constant voltage of 150 V. Under these conditions, the amylase completely digested the insulin-glycogen conjugate into native MW insulin at the 1:16 dilution level as quantified by the relative band density of high MW conjugate to that of native MW insulin.
SDS-PAGE has confirmed that the insulin-glycogen conjugate is essentially free from unconjugated insulin (FIG. 5a). […] Serum was collected from the other catheter as a function of time and analyzed for fluorescence (fmax, Molecular Devices, Sunnyvale, Calif.) to determine glycogen absorption rate and insulin levels (RIA, Joslin Diabetes Center).

Series [4] has as its system non-diabetic felines. Nature of the series: euglycemic clamp protocol in non-diabetic felines. The settings on record: 0.5 U/kg conjugate (FIG. 6). The class given is in vivo, feline.
Setting [5] is: s.c. 0.25 ml, fasted normal male SD rats.
The mark [6] stands for this setting: FIG. 4b, s.c. 2.5 U of conjugated insulin/kg, male SD rats.
[7] abbreviates: s.c. injection alone, normal male SD rats.

Regarding “insulin-dextran: human recombinant insulin coupled to dextran (MW=70K) by CNBr; comparative conjugate [reference compound]”, in series [1] (setting [5]), the “time serum glucose levels remain depressed post injection” value was “at least five”, the “time to reach the glucose nadir (Tnadir)” value is listed as “about 3 h” and the “time to return to within 70% of fasting glucose levels (T70% BGL)” value is “greater than 2.5 hours”.

On to “insulin-glycogen conjugate: human recombinant insulin covalently linked to glycogen by CNBr or CDAP coupling; glycogen source differs between examples”, for which, in series [2] (STZ-diabetic rats), the “elimination from the injection site (fluorescence imaging)” value is “completely eliminated from the injection site in STZ-diabetic rats both one and two days after injection”. In addition, in series [2] (normal rats), the “elimination from the injection site (fluorescence imaging)” value is recorded as “still remained at the injection site after one day”. Further, the degradation by amylases result in series [3] is “rapidly degraded by amylases in vitro and in vivo”. Besides, the “conjugate bioactivity in euglycemic clamp” value in series [4] is reported as “confirmed the conjugate bioactivity”. In addition, in series [1] (setting [6]), the “T70% BGL” value was roughly 150 min and the “Tnadir (blood glucose)” value fell in the range of 30 to 45 min. In series [1] (setting [7]), the “time to reach glucose nadir (Tnadir)” value lay within 30 to 45 min and the “time to return to within 70% of fasting glucose levels (T70% BGL)” value is “less than 180 minutes”. Further, the “speed of insulin action compared with unconjugated insulin” value in series [1] (s.c., normal male SD rats) is on record as “acts just as rapidly as unconjugated insulin in vivo”.
